Results reported in patent US5773442A, “Benzamidine derivatives and pharmaceutical composition containing them” (Yamanouchi Pharmaceutical Co., Ltd., priority 1995, dated 1998).

Columns and labels:
[1] = target: T1, GPIIb/IIIa (Homo sapiens, UniProt P05106+P08514); test: Bonding of fibrinogen to pure GPIIb/IIIa; assay type: binding; settings: biotinated fibrinogen, 37° C., 3 hours
T1 construct: GPIIb/IIIa was purified according to a Fitzgerald et al's method; from tissue; host or cells: platelets (human, inferred from the cited Fitzgerald method)
T1 sequence (P08514 32-887 limits assumed): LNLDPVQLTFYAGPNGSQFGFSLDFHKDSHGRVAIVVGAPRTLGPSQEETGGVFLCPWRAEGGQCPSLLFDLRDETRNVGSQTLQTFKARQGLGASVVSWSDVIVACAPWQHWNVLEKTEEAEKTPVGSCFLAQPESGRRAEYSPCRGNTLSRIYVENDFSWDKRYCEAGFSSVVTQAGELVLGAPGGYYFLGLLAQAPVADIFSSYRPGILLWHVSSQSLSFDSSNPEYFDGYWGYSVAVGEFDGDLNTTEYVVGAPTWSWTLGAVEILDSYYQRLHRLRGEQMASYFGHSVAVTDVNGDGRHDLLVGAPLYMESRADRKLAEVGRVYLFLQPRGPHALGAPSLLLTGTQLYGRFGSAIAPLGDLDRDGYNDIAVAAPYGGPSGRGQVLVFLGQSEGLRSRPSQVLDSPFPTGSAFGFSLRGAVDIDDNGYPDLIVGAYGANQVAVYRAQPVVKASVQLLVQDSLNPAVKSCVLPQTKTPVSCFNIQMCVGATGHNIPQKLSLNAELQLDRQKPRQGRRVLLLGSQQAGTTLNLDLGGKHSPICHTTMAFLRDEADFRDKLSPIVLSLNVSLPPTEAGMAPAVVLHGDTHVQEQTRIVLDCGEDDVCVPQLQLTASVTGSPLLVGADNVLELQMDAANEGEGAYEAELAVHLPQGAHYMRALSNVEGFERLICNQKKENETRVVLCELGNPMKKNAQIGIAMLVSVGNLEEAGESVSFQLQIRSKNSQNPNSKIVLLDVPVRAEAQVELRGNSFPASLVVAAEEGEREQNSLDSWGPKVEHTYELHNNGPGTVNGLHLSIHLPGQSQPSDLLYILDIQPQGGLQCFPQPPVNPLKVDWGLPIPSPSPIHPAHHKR
T1 sequence (P08514 891-1039 limits assumed): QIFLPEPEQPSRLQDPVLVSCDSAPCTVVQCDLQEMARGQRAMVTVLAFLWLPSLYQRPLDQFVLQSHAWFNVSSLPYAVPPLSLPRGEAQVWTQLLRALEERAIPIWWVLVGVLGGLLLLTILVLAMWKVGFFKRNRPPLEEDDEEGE
T1 sequence (P05106 27-788): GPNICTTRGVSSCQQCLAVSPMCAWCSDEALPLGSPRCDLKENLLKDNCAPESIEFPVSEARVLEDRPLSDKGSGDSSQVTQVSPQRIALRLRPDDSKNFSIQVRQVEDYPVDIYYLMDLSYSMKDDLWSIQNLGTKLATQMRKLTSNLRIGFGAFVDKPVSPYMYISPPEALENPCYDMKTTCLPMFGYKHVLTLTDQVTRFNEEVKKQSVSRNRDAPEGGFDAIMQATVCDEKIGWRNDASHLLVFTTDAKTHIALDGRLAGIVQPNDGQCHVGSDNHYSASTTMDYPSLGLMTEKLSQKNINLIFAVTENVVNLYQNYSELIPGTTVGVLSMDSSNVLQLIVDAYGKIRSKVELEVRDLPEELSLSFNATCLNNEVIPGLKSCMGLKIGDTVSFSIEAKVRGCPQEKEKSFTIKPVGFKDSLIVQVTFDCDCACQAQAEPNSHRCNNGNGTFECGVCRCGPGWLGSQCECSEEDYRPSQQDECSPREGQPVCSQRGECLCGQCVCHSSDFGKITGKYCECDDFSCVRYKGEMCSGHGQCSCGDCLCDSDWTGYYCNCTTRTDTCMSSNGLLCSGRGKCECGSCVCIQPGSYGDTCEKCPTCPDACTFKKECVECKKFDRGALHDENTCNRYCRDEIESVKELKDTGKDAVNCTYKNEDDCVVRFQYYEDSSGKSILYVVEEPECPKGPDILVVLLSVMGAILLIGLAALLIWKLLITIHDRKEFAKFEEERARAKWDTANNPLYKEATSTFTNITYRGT
Experimental: Bonding of fibrinogen to pure GPIIb/IIIa: GPIIb/IIIa was purified according to a Fitzgerald et al's method. Fibrinogen was biotinated with NHS-LC-Biotin (manufactured by Pierce Co.). The pure GPIIb/IIIa was added to TBS (20 mM Tris-HCl, pH 7.4, 150 mM NaCl, 1 mM CaCl2, 1 mM MgCl2) at one μg/ml. 100 μl of the resulting solution was put into a 96-well plate (MaxiSorp™, manufactured by Nunc Co.) and left at 4° C. overnight. […] After the solution was removed, a sample compound to be tested and the biotinated fibrinogen were added to the plate and reacted at 37° C. for 3 hours. […] This was washed three times with 300 μl of T-TBS.

[2] = system: platelet aggregation (PRP; ADP and collagen as triggers); test: Ex vivo platelet aggregation-inhibiting activity in cynomolgus monkeys; settings: 3 mg/kg via stomach tube, 20 μM ADP and 10 μg/ml collagen, mean ± SEM (n = 3)
Experimental: Ex vivo platelet aggregation-inhibiting activity in cynomolgus monkeys:
Cynomolgus monkeys that had been lightly anesthetized by intramuscular administration of ketamine hydrochloride were fixed on a work-bench, and a sample compound of the present invention as dissolved in 2 ml of […] was forcedly administered into its stomach via a stomach tube at a dose of 3 mg/kg. Before the administration and after the administration at a predetermined period of time, 3 ml (containing 1/10 times by volume of sodium citrate) of the blood was collected from the animal through its femoral vein. From the blood was obtained platelet-rich-plasma (PRP) of 300,000/μl, according to the De Marco et al's method (see J. clin. Invest., 77, 1272-1277, 1988). The PRP was adjusted at 3×10^8 /ml with an automatic blood cell counter (MEK-5158 Model, produced by Nihon Koden Co.) before use. Added thereto were 20 μM of ADP and 10 μg/ml of bovine tendon-derived collagen (produced by Niko Bioscience Co.) as triggers, whereby the aggregation of the platelets was caused in the PRP. The degree of the aggregation of the platelets was measured with a platelet aggregation meter (NBS Hematracer 801, produced by Niko Bioscience Co.). The platelet aggregation-inhibiting activity of the tested compound was represented by the inhibition percentage (%) relative to the maximum aggregation percentage of each animal before the addition of the compound thereto.

Row | Structure (SMILES) | IC50 [1] | platelet aggregation-inhibition ratio (%), 2 hours after [2] | platelet aggregation-inhibition ratio (%), 4 hours after [2] | platelet aggregation-inhibition ratio (%), 6 hours after [2] | platelet aggregation-inhibition ratio (%), 9 hours after [2] | platelet aggregation-inhibition ratio (%), 12 hours after [2] | platelet aggregation-inhibition ratio (%), 24 hours after [2]
1 | Cl.N=C(N)c1ccc(N2CCN(C3CCN(CC(=O)O)CC3CC(=O)O)CC2)cc1 (centres unmarked) [Example 8, 4-[4-(4-Amidinophenyl)-1-piperazinyl]-1,3-piperidinediacetic acid hydrochloride] | 8.4 nM | 57 ± 20% | 98 ± 1.0% | 98 ± 1.2% | 81 ± 19% | 100 ± 0% | 24 ± 9.1%
2 | N=C(N)c1ccc(N2CCN(C3CCN(CC(=O)O)CC3)CC2=O)cc1 [Example 18, 4-[4-(4-Amidinophenyl)-3-oxo-1-piperazinyl]-1-piperidineacetic acid] | – | 86 ± 8.4% | 98 ± 0.9% | 75 ± 25% | 97 ± 1.7% | 99 ± 0.7% | 34 ± 11%
3 | N=C(N)c1ccc(N2CC(=O)N(C3CCN(CC(=O)O)CC3)CC2=O)cc1 [Example 16, 4-[4-(4-amidinophenyl)-2,5-dioxo-1-piperazinyl]-1-piperidineacetic acid] | 10.4 nM | – | – | – | – | – | –
